Laboratory results taken from patent publication US20110239327A1, “Nematicidal Effects of Cysteine Proteinases and Methods of Use Thereof to Treat Nematode Infestation” (priority 2007, published 2011).

Key:
M. incognita J2 [1] = test: In planta bioassay, two soil applications: nematode infection of tomato roots; type: in vivo, M. incognita on tomato plants; conditions: two soil applications of enzyme (250 μM papain, 2.2 μM bromelain, 3.3 mM actinidin as printed), soil 16% organic matter, 11 days
Procedure: Oxamyl is supplied as 10% liquid Vydate. 125 μl of a solution 1000 fold dilution of 10% formulation (kindly supplied by DK from NIU) was applied to 5 g of the soil mixture with 16% organic matter, to give a partial nematicidal effect. Soil mixtures were wetted with PBS pH 7.2, 16 hrs prior nematode application of 1000 or 2000 M. incognita J2. Infected soil mixtures were treated with water (control) or 250 μM of active papain in 16 mM of L-cysteine or a combination of Vydate and 250 μM of active papain in 16 mM of L-cysteine. After 48 hs tomato seedlings one month old were added to the treated soils. After 11 days the roots were washed free of soil and chopped to approximately 2 mm pieces. The root pieces of each tomato plant was placed in muslin bags and stained with acid-fuchsin. The stained roots were examined under microscope and all the nematodes present in the roots were counted. […] After 48 hours tomato seedlings one month old were added to the treated soils and after 11 days post infection nematode development inside root tissues was assessed as described above.
The avermectins are macrocyclic lactones produced by the actinomycete Streptomyces avermitilis. […] After 48 hs tomato seedlings one month old were added to the treated soils and after 11 days post infection nematode development inside root tissues was assessed as described above. […]

M. incognita J2 [2] = test: In vitro live/dead count of M. incognita J2 in solution without soil (Example 2); type: cell-based
Procedure: Eggs of M. incognita race 1 from North Carolina State University, USA were collected from tomato-infected roots grown in a glasshouse at 23° C. in a 16:8 h light-dark regime. Eggs were extracted using 1% hypochlorite (NaClO) solution (Hussey and Barker, 1973) or by picking egg masses from tomato-infected roots. Juveniles (J2) were hatched from the eggs and egg masses in water. Heterodera glycines eggs were obtained from soil samples stored in Rothamsted-Research. Second stage juveniles (J2) were hatched from the eggs in water after 10 days. Pratylenchus penetrans were a gift from Dr. Deeren Anne-Marie from the Institute for Agricultural and Fisheries Research, Merelbeke, Belgium. The beneficial nematodes Steinernema feltiae and Heterorhabditis megidis were a gift from Dr. Paul Williams from Becker Underwood. […]
Control wells were set up which contained J2s and distilled water with 16 mM L-cysteine. […] The actual number of active J2s per well was counted with the aid of an Olympus inverted microscope, prior to the addition of the enzymes, and then the J2s were incubated in the dark at room temperature for 2 hs, 16 hs, 24 hs or 40 hr. The number of live and dead J2s per well was counted after each enzyme incubation. […]

Pratylenchus penetrans = test: In vitro live/dead count of Pratylenchus penetrans; type: cell-based
Procedure: (§1) Eggs of M. incognita race 1 from North Carolina State University, USA were collected from tomato-infected roots grown in a glasshouse at 23° C. in a 16:8 h light-dark regime. Eggs were extracted using 1% hypochlorite (NaClO) solution (Hussey and Barker, 1973) or by picking egg masses from tomato-infected roots. Juveniles (J2) were hatched from the eggs and egg masses in water. Heterodera glycines eggs were obtained from soil samples stored in Rothamsted-Research. Second stage juveniles (J2) were hatched from the eggs in water after 10 days. Pratylenchus penetrans were a gift from Dr. Deeren Anne-Marie from the Institute for Agricultural and Fisheries Research, Merelbeke, Belgium. The beneficial nematodes Steinernema feltiae and Heterorhabditis megidis were a gift from Dr. Paul Williams from Becker Underwood.
Control wells were set up which contained J2s and distilled water with 16 mM L-cysteine. Each enzyme concentration and the controls were set up in duplicate (i.e. n=2). […] The number of live and dead J2s per well was counted after each enzyme incubation. The same procedure was followed when setting up further experiments to compare the effects of these enzymes with Heterodera glycines J2, Pratylenchus penetrans, Steinernema feltiae and Heterorhabditis megidis.

Heterorhabditis megidis = test: In vitro effect on the beneficial nematode Heterorhabditis megidis; type: cell-based
Procedure: as §1
Control wells were set up which contained J2s and distilled water with 16 mM L-cysteine. Each enzyme concentration and the controls were set up in duplicate (i.e. n=2). The actual number of active J2s per well was counted with the aid of an Olympus inverted microscope, prior to the addition of the enzymes, and then the J2s were incubated in the dark at room temperature for 2 hs, 16 hs, 24 hs or 40 hr. The number of live and dead J2s per well was counted after each enzyme incubation. The same procedure was followed when setting up further experiments to compare the effects of these enzymes with Heterodera glycines J2, Pratylenchus penetrans, Steinernema feltiae and Heterorhabditis megidis.
The beneficial nematodes Hetorhabditis megidis and Steinernema feltiae were incubated with dilutions of actinidin, bromelain and pappain from papaya latex (see concentrations used in table 3). These nematodes reacted differentially to these cysteine proteinases (Tables 4 and 5). […] S. feltiae were dead at all concentrations of actinidin tested. […] After 16 hs of observation the enzyme solutions were diluted with water (to half of the initial concentrations) however, no change in nematode movement was observed after 24 hs.

## stem bromelain
M. incognita J2 [1]
  reduction of nematode infection of plants: 95%
M. incognita J2 [2]; after 40 hs of observation, at the nematicidal concentration
  recovery of movement: not able to recover movement
M. incognita J2 [2]; in solution without soil
  concentration of active bromelain with nematicidal effect: 1 mM
Pratylenchus penetrans
  concentration of bromelain that killed the nematodes: 560 µM
Pratylenchus penetrans; after 48 hs
  recovery of mobility: no recovery of mobility
Heterorhabditis megidis; enzyme concentration A (Table 3): actinidin 3.3 mM, bromelain 2.2 mM, papain 250 uM
  nematode motility or behaviour: All paralysed
Heterorhabditis megidis; enzyme concentration B: actinidin 1.7 mM, bromelain 1.1 mM, papain 125 uM
  nematode motility or behaviour: All paralysed
Heterorhabditis megidis; enzyme concentration C: actinidin 840 uM, bromelain 560 uM, papain 62.5 uM
  nematode motility or behaviour: All paralysed
Heterorhabditis megidis; higher concentrations
  effect on H. megidis: paralysed
Heterorhabditis megidis; lower concentrations
  effect on H. megidis: only affected slightly
